Experimental data taken from EP3666770A1, “NOVEL HETEROCYCLIC COMPOUNDS AS CDK8/19 INHIBITORS” (Joint Stock Company "Biocad", priority 2017, dated 2019).
Where two headings read alike, the source gives them in different places.

Experiments:
MV4-11 = assay: Cell-based antiproliferative test (AlamarBlue), MV4-11; settings: 120 h incubation, average values of several tests, read-out: MV-4-11 IC50, mkM
[1] = General cytotoxicity test on HepG2 cells; assay type: cell-based; settings: human, HepG2 cells; 72 h incubation; 200 to 0.78 µM; average values of several tests; read-out: Hep-G2 CC50, mkM
Method: Cell viability was assessed using the above method. Table 6. […] The results are presented as average values of activity obtained in several tests.

[2] = Enzyme stability in human liver S9 fractions; assay type: in vitro ADME; settings: 0,5 mg/mL pooled human liver S9 fractions, 10 µM compound, 37°C, pH=7,4; for microsomal CLint at 10 µM: pH 7.4
Method: Measuring of candidates' enzyme stability enabled estimation of the stability of the present compounds towards the action of enzymes in human liver S9 fractions.
Enzyme degradation rate was measured by incubating the reaction mixture in a dry block thermostat at 37°C, said reaction mixture comprising 0,5 mg/mL of pooled human liver S9 fractions (XenoTech, USA, cat#H0610), 10 µM compound, 2 mM β-nicotinamide adenine dinucleotide (Carbosynth, UK, cat#NN10871) and 4 mM magnesium chloride in 0,1 M sodium-phosphate buffer, pH=7,4. The reaction was quenched with acetonitrile (100 µL of acetonitrile / 100 µL of the reaction mixture). After quenching, the samples were centrifuged at 10000 rpm for 10 minutes. Supernatant fluid was tested by chromatographic technique using Agilent1200 (Agilent, USA). Chromatographic analysis was performed in a gradient elution regime with a flow rate of 1 mL/min. A graph of the logarithm of substance's peak area as a function of time was made.

[3] = Chemical stability in human blood plasma; assay type: in vitro ADME; settings: pooled human blood plasma; 10 µM; 4 hours at 37°C; substance amount in % after thermostatting
Procedure, shortened: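 Pooled plasma from ten healthy human donors; compound diluted from 10 mM DMSO stock to 10 µm final and incubated 4 h at 37°C. After acetonitrile protein precipitation, HPLC peak areas before and after incubation were compared; value is % compound remaining.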

[4] = Permeability through Caco-2 cell monolayer; assay type: in vitro ADME; settings: human, Caco-2; for Papp A→B at 2 h, 10 µM: A->B transfer, pH 6.5 -> pH 7.4, 2 hours at 37 °C; for efflux ratio at 2 h, 10 µM: efflux = Papp B-A / Papp A-B
Procedure, shortened: (§1)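 Caco-2 monolayers grown for 21 days (Lucifer Yellow integrity check) received 10 µM compound apically at pH 6.5 (A→B) or basolaterally at pH 7.4 with 1% BSA on the basolateral side (B→A). After 2 h at 37 °C, both chambers were quantified by HPLC. Efflux ratio = Papp B→A / Papp A→B.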

KG-1 = assay: Cell-based antiproliferative test (AlamarBlue), KG-1; settings: 120 h incubation, average values of several tests, read-out: KG-1 IC50, mkM
Caco-2 cell monolayer = assay: Permeability through Caco-2 cell monolayer; assay type: in vitro ADME; settings: efflux = Papp B-A / Papp A-B
Procedure, shortened: as §1

[5] = Chemical stability in simulated gastric fluid (SGF); assay type: physicochemical; settings: SGF without enzymes, pH=1,4; 10 µm; 2 hours at 37°C; substance amount in % after thermostatting
Procedure, shortened: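 Compounds at […] (diluted from DMSO stock) were incubated for 2 h at 37 °C in enzyme-free simulated gastric fluid, pH=1,4. HPLC peak areas before and after incubation gave the % of compound remaining.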

[6] = Enzyme stability in human liver microsomes; assay type: in vitro ADME; settings: pH 7.4; 0,5 mg/mL pooled human liver microsomes; 10 µM compound; 37°C; pH=7,4
Procedure, shortened: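 Pooled human liver microsomes (0,5 mg/mL) incubated at 37 °C with 10 µM compound, 2 mM β-NAD and 4 mM MgCl2 in 0,1 M sodium phosphate, pH 7,4. Samples quenched with acetonitrile and analysed by HPLC. Elimination rate constant taken from the slope of log peak area versus time, giving t1/2 and CLint.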

Compound `CO[C@@H]1CCN(C(=O)c2cnc3cncc(-c4ccc(-c5cnn(C)c5)cc4)c3c2)C1` [CDK8-3-19, (R)-(3-Methoxypyrrolidin-1-yl)(5-(4-(1-methyl-1H-pyrazol-4-yl)phenyl)-1,7-naphthyridin-3-yl)methanone] has an IC50 (MV4-11; Homo sapiens, MV4-11, 120 h) of 0.912 µM, a CC50 at 72 h [1] of over 100 µM and a microsomal CLint at 10 µM [2] of 2.9 µL/min/mg.
In the case of `CO[C@@H]1CCCN(C(=O)c2cnc3cncc(-c4ccc(-c5cnn(C)c5)cc4)c3c2)C1` [CDK8-3-21, (R)-(3-Methoxypiperidin-1-yl)(5-(4-(1-methyl-1H-pyrazol-4-yl)phenyl)-1,7-naphthyridin-3-yl)methanone], the IC50 (MV4-11; Homo sapiens, MV4-11, 120 h) is reported as 0.764 µM, the CC50 at 72 h [1] is reported as over 100 µM and the microsomal CLint at 10 µM [2] is reported as 12.9 µL/min/mg.
Compound `CN(C)C(=O)c1cnc2cncc(-c3ccc(-c4cnn(C)c4)cc3)c2c1` [CDK8-3-22, N,N-Methyl-5-(4-(1-methyl-1H-pyrazol-4-yl)phenyl)-1,7-naphthyridine-3-carboxamide] has an IC50 (MV4-11; Homo sapiens, MV4-11, 120 h) of 0.432 µM, a CC50 at 72 h [1] of over 100 µM and a microsomal CLint at 10 µM [2] of 3 µL/min/mg.
With `CCN(CC)C(=O)c1cnc2cncc(-c3ccc(-c4cnn(C)c4)cc3)c2c1` [CDK8-3-23, N,N-Diethyl-5-(4-(1-methyl-1H-pyrazol-4-yl)phenyl)-1,7-naphthyridine-3-carboxamide] the IC50 (MV4-11; Homo sapiens, MV4-11, 120 h) was 0.413 µM, the CC50 at 72 h [1] was over 100 µM and the microsomal CLint at 10 µM [2] was 9.2 µL/min/mg.
With `COCCNC(=O)c1cnc2c(N)ncc(-c3ccc(-c4cnn(C)c4)cc3)c2c1` [CDK8-3-24, 8-Amino-N-(2-methoxyethyl)-5-(4-(1-methyl-1H-pyrazol-4-yl)phenyl)-1,7-naphthyridine-3-carboxamide] the “Stability in blood plasma, %” value [3] was 89.7%, the Papp A→B at 2 h, 10 µM [4] was 17 ×10⁻⁶ cm/s and the efflux ratio at 2 h, 10 µM [4] was 1.1. It also gave an IC50 (MV4-11; Homo sapiens, MV4-11, 120 h) of 0.099 µM, a CC50 at 72 h [1] of over 200 µM and a microsomal CLint at 10 µM [2] of 4.6 µL/min/mg.
`COCCN(C)C(=O)c1cnc2cncc(-c3ccc(-c4cnn(C)c4)cc3)c2c1` [CDK8-3-25, N-(2-Methoxyethyl)-N-methyl-5-(4-(1-methyl-1H-pyrazol-4-yl)phenyl)-1,7-naphthyridine-3-carboxamide] gave a Papp A→B at 2 h, 10 µM [4] of 29.3 ×10⁻⁶ cm/s, an efflux ratio at 2 h, 10 µM [4] of 0.6 and an IC50 (MV4-11; Homo sapiens, MV4-11, 120 h) of 0.134 µM. For the same compound, the CC50 at 72 h [1] was over 100 µM and the microsomal CLint at 10 µM [2] was 3.3 µL/min/mg.
In the case of `Cn1cc(-c2ccc(-c3cnc(N)c4ncc(C(=O)N5CCC5)cc34)cc2)cn1` [CDK8-3-26, (8-Amino-5-(4-(1-methyl-1H-pyrazol-4-yl)phenyl)-1,7-naphthyridin-3-yl) (azetidin-1-yl)methanone], the IC50 (KG-1; Homo sapiens, KG-1) is reported as 0.003 µM, the “Stability in blood plasma, %” value [3] is reported as 95.8% and the Papp A→B at 2 h, 10 µM [4] is reported as 53.7 ×10⁻⁶ cm/s. The efflux ratio at 2 h, 10 µM [4] was 0.3, the IC50 (MV4-11; Homo sapiens, MV4-11, 120 h) was 0.011 µM and the CC50 at 72 h [1] was 4.9 µM. It also gave a microsomal CLint at 10 µM [2] of 3.25 µL/min/mg.
For `Cn1cc(-c2ccc(-c3cnc(N)c4ncc(C(=O)N5CCOCC5)cc34)cc2)cn1` [CDK8-3-27, (8-Amino-5-(4-(1-methyl-1H-pyrazol-4-yl)phenyl)-1,7-naphthyridin-3-yl) (morpholino)methanone], the “Stability in blood plasma, %” value [3] was 94.2%, the Papp A→B at 2 h, 10 µM [4] was 22.6 ×10⁻⁶ cm/s and the efflux ratio at 2 h, 10 µM [4] was 0.9. The IC50 (MV4-11; Homo sapiens, MV4-11, 120 h) was 0.066 µM, the CC50 at 72 h [1] was 19.4 µM and the microsomal CLint at 10 µM [2] was 1.55 µL/min/mg.
For `COCCN(C)C(=O)c1cnc2c(N)ncc(-c3ccc(-c4cnn(C)c4)cc3)c2c1` [CDK8-3-32], the IC50 (KG-1; Homo sapiens, KG-1) was under 0.01 µM, the “Stability in blood plasma, %” value [3] was 100% and the Papp A→B at 2 h, 10 µM [4] was 24.9 ×10⁻⁶ cm/s. For the same compound, the efflux ratio at 2 h, 10 µM [4] was 0.7, the IC50 (MV4-11; Homo sapiens, MV4-11, 120 h) was 0.01 µM and the CC50 at 72 h [1] was 20.7 µM. For the same compound, the microsomal CLint at 10 µM [2] was 3.8 µL/min/mg.
In the case of `Cn1cc(-c2ccc(-c3cncc4ncc(C(=O)NCC5CC5)cc34)cc2)cn1` [CDK8-3-39], the IC50 (KG-1) is reported as 0.005 µM, the IC50 (MV4-11) is reported as 0.055 µM and the “Stability in S9, Clint” value [2] is reported as 10.3 µL/min/mg.
For `Cn1cc(-c2ccc(-c3cnc(N)c4ncc(C(=O)NCC5CC5)cc34)cc2)cn1` [CDK8-3-40, 8-Amino-N-(cyclopropylmethyl)-5-(4-(1-methyl-1H-pyrazol-4-yl)phenyl)-1,7-naphthyridine-3-carboxamide], the IC50 (MV4-11; Homo sapiens, MV4-11, 120 h) was 0.009 µM, the CC50 at 72 h [1] was 200 µM and the microsomal CLint at 10 µM [2] was 2.95 µL/min/mg.
In the case of `Cn1cc(-c2ccc(-c3cnc(N)c4ncc(C(=O)NCCO)cc34)cc2)cn1` [CDK8-3-42, 8-Amino-N-(2-hydroxyethyl)-5-(4-(1-methyl-1H-pyrazol-4-yl)phenyl)-1,7-naphthyridine-3-carboxamide], the IC50 (KG-1; Homo sapiens, KG-1) is reported as 0.009 µM, the “Stability in blood plasma, %” value [3] is reported as 100% and the Papp A→B at 2 h, 10 µM [4] is reported as 11.8 ×10⁻⁶ cm/s. For the same compound, the efflux ratio at 2 h, 10 µM [4] was 1.6, the IC50 (MV4-11; Homo sapiens, MV4-11, 120 h) was 0.028 µM and the CC50 at 72 h [1] was 15.9 µM. The microsomal CLint at 10 µM [2] was 0.5 µL/min/mg.
In the case of `COc1cc(-c2cnc3[nH]cc(C(=O)c4ccccn4)c3c2)ccc1N(C)C` [CDK8-4-21, (5-(4-(Dimethylamino)-3-methoxyphenyl)-1H-pyrrolo[2,3-b]pyridin-3-yl)(pyridin-2-yl)methanone], the “Stability in blood plasma, %” value [3] is reported as 100%, the efflux (Caco-2 cell monolayer) is reported as 0.09 and the Papp A→B at 2 h, 10 µM [4] is reported as 106 ×10⁻⁶ cm/s. For the same compound, the IC50 (MV4-11; Homo sapiens, MV4-11, 120 h) was 0.74 µM, the “Stability in SGF, %” value [5] was 100% and the CC50 at 72 h [1] was 4.7 µM.
In the case of `COc1ccc(-c2cnc3[nH]cc(C(=O)c4cccnc4)c3c2)c(C#N)c1` [CDK8-4-28, 5-Methoxy-2-(3-nicotinoyl-1H-pyrrolo[2,3-b]pyridin-5-yl) benzonitrile], the “Stability in blood plasma, %” value [3] is reported as 100%, the microsomal CLint at 10 µM [6] is reported as 6.8 µL/min/mg and the efflux (Caco-2 cell monolayer) is reported as 0.03. For the same compound, the Papp A→B at 2 h, 10 µM [4] was 68.9 ×10⁻⁶ cm/s, the IC50 (MV4-11; Homo sapiens, MV4-11, 120 h) was over 1 µM and the “Stability in SGF, %” value [5] was 100%. It also gave a CC50 at 72 h [1] of over 200 µM.
